In patent US9968577B2, “Treatment and prevention of bone loss using resolvins” (Forsyth Dental Infirmary for Children, priority 2005, dated 2018):

Tested on: P. gingivalis-induced periodontitis
Assay: Ligature + P. gingivalis experimental periodontitis, topical application of Resolvin E1
Format: in vivo, New Zealand White rabbits
[1] = rabbit, topical, every other day for 6 weeks, compared with baseline

**Q.** Which bone loss (rabbit model, topical administration) does the source give for CC[C@@H](O)/C=C/C=C\C[C@@H](O)/C=C/C=C/C=C\[C@@H](O)CCCC(=O)O [Resolvin E1] here?
**A.** prevents bone loss

**Q.** And the “soft tissue condition (mandibles, FIG. 2)” value (rabbit, topical resolvin E1 7 μg/μL in ethanol every other day for 6 weeks, starting six weeks after ligature and P. gingivalis, vs control group)?
**A.** distinctly healthier than the control group

**Q.** And the “deposition of bone (bone growth), conclusion” value (rabbit, topical, every other day for 6 weeks)?
**A.** assisted in deposition of bone

**Q.** What about the “hard tissue crestal distance measurements (FIG. 4 and FIG. 5)” value (rabbit, topical, every other day for 6 weeks, buccal and lingual, defleshed jaws) of the same compound?
**A.** same results

**Q.** What about the “soft tissue pocket depth measurements (FIG. 3)” value (rabbit, topical, every other day for 6 weeks, buccal and lingual, vs vehicle alone) of the same compound?
**A.** lower

**Q.** And the “hard-tissue-infrabony pocket depth measurements (FIG. 6)” value [1]?
**A.** improvement over baseline

**Q.** And the “soft tissue pocket depth measurements vs baseline (FIG. 3)” value [1]?
**A.** improvement over baseline

**Q.** And the “tooth mobility (FIG. 7)” value [1]?
**A.** improvement over baseline
